Test results published in PMC3963473, “Structure–Activity Relationship Studies of Pyrrolone Antimalarial Agents” (Chemmedchem, 2013).
≈ marks a conversion by molar mass, not a printed value. Like-named read-outs stand apart in the source and are kept apart here.

Columns and labels:
L6 cells = test: In vitro cytotoxicity assay in L6 cells (Alamar Blue); format: cell-based; settings: Rattus norvegicus, mean of two independent assays, read-out: EC50 L6 cells
Experimental: (§1) V. Design and Results of the in vitro & in vivo Studies.
A. Drug inhibition of in vitro cultured P. falciparum parasite:2 All in vitro assays were carried out twice independently. In vitro activity against the erythrocytic stages of P. […]
B. In vitro cytotoxicity assay:2 Assays were performed in 96-well microtiter plates, each […]
mM) and 10% fetal bovine serum, and 4 x 10^4 L-6 cells (a primary cell line derived from rat skeletal myoblasts). Serial drug dilutions of seven 3-fold dilution steps covering a range […]
After 72 h of incubation the plates were inspected […]
of Alamar Blue was then added to each well and the plates incubated for another 2 h.
Then the plates were read with a Spectramax Gemini XS microplate fluorometer (Molecular Devices Cooperation, Sunnyvale, CA, USA) using an excitation wave length of […]
Data were analysed using the microplate reader software Softmax Pro (Molecular Devices Cooperation, Sunnyvale, CA, USA).

Plasmodium falciparum K1 = test: microbe, parasite or virus in culture; format: cell-based; settings: for EC50: Plasmodium falciparum, K1, read-out: EC50 P. falc.; for EC50 (P. falciparum K1): values in nM; for drop / loss in activity (fold) / decrease in EC50 value relative to the unsubstituted analogue 56: P. falciparum K1; for drop / loss in activity (fold): C-ring variants, comparator not stated explicitly; for decrease in EC50 value relative to the unsubstituted analogue 56: relative to 56
Experimental: as §1
A. Drug inhibition of in vitro cultured P. falciparum parasite:2 All in vitro assays were carried out twice independently. In vitro activity against the erythrocytic stages of P. falciparum was determined by using a 3H-hypoxanthine incorporation assay,5-6 using the […]
were dissolved in DMSO at 10 mg/mL and added to parasite cultures incubated in RPMI […]
haematocrit (0.3% parasitaemia). Serial doubling dilutions of each drug were prepared in […]
After 48 h, 50 µL of 3H-hypoxanthine (= 0.5 µCi) was added to each well of the plate. The plates were incubated for an additional 24 h under the same conditions. The plates were then harvested with a Betaplate cell harvester (Wallac, Zurich, Switzerland), and the red blood cells were transferred onto a glass fiber filter and then washed with distilled water. The dried filters were inserted into a plastic foil with 10 mL of scintillation fluid and were counted in a Betaplate™ liquid scintillation counter (Wallac, Zurich, […]

[1] = Aqueous solubility estimated by nephelometry; format: physicochemical; settings: kinetic from dmso stock
Experimental: III. Physicochemical Evaluation […]
Solubility Estimation: Aqueous solubility was estimated by nephelometry.
Compound in DMSO was spiked into either water, pH 6.5 phosphate buffer or 0.01N HCl
(approx. pH 2.0) with the final DMSO concentration being 1%. Samples were then
analyzed by Nephelometry to determine the solubility range as described previously.1

[2] = tested on: green fluorescent protein (GFP)-transfected Plasmodium berghei ANKA; format: in vivo; settings: for [%] Reduction parasitaemia: mice, 10 % DMSO in water; for Survival: in vivo
Experimental: In vivo efficacy studies: The protocols are described in the Supporting Information. In vivo efficacy studies in mice were conducted at the Swiss Tropical & Public Health Institute (Basel, Switzerland) according to the rules and regulations for the protection of animal rights (“Tierschutzverordnung”) of the Swiss “Bundesamt für Veterinärwesen”. They were approved by the veterinary office of Canton Basel-Stadt, Switzerland.
C. In vivo antimalarial efficacy studies (4 days treatment).2
In vivo antimalarial activity was assessed basically as previously described. Groups of […]
erythrocytes on day 0 with GFP-transfected P. berghei strain ANKA. .Unless otherwise indicated compounds were formulated in 100% DMSO, diluted 10-fold in distilled water and administered intraperitoneally or orally in a volume of 10 mL kg-1 on four consecutive days (4, 24, 48 and 72 h post infection). Parasitemia was determined on day 4 post infection (24 h after last treatment) by FACS analysis. Activity was calculated as the difference between the mean per cent parasitaemia for the control (n=5 mice) and treated groups expressed as a per cent relative to the control group. The survival time in days was also recorded up to 30 days after infection. A compound was considered curative if the animal survived to day 30 after infection with no detectable parasites. All protocols and procedures used in the current study were reviewed and approved by the local veterinary authorities of the Canton Basel-Stadt.

[3] = Table 1, A-ring variants, mammalian L6 cells
[4] = aqueous buffer, pH 6.5 phosphate buffer, nephelometry, 1% DMSO, read-out: Solubility pH 6.5
[5] = Table 1, water, nephelometry, 1% DMSO, read-out: Solubility water
[6] = simulated gastric fluid, pH 2.0 (0.01N HCl), nephelometry, 1% DMSO, read-out: Solubility pH 2.0
[7] = Table 2, C-ring variants, L6 cells
[8] = Table 2, water, read-out: Solubility water

Row | Structure (SMILES) | EC50 (L6 cells; [3]) | EC50 (Plasmodium falciparum K1) | solubility [1, 5] | melting point | EC50 (L6 cells; [7]) | further results
1 | CCOC(=O)C1=C(C)N/C(=C/c2cc(C)n(C3CCN(Cc4ccccc4)CC3)c2C)C1=O [Compound 17, (E)-Ethyl 5-((1-(1-benzylpiperidin-4-yl)-2,5-dimethyl-1H-pyrrol-3-yl)methylene)-2-methyl-4-oxo-4,5-dihydro-1H-pyrrole-3-carboxylate] | 20 µM | 35 nM | > 125 µM | 150 to 155 °C | – | solubility [1, 4]: 14 to 28 µM (≈ 6.27 to 12.5 µg/mL); solubility [1, 6]: 56 to 110 µM (≈ 25.1 to 49.2 µg/mL)
2 | CCOC(=O)C1=C(C)N/C(=C/c2cc(C)n(C3CCN(CC)CC3)c2C)C1=O [Compound 20] | 7.6 µM | 2400 nM | – | 140 to 145 °C | – | solubility [1, 4]: > 250 µM; solubility [1, 6]: > 250 µM
3 | CCOC(=O)C1=C(C)N/C(=C/c2cc(C)n(C3CCN(Cc4ccc(F)cc4)CC3)c2C)C1=O [Compound 26] | 51 µM | 24 nM | > 125 µM | – | – | –
4 | CCOC(=O)C1=C(C)N/C(=C/c2cc(C)n(C3CCN(Cc4ccc(F)cc4F)CC3)c2C)C1=O [Compound 27] | 23 µM | 23 nM | > 125 µM | – | – | –
5 | CCOC(=O)C1=C(C)N/C(=C/c2cc(C)n(C3CCN(Cc4ccc(C(F)(F)F)cc4)CC3)c2C)C1=O [Compound 28] | 5 µM | 2 nM | > 125 µM | – | – | solubility [1, 4]: 6 to 12 µM (≈ 3.09 to 6.19 µg/mL); solubility [1, 6]: 48 to 97 µM (≈ 24.7 to 50 µg/mL)
6 | CCOC(=O)C1=C(C)N/C(=C/c2cc(C)n(C3CCN(Cc4ccccc4C(F)(F)F)CC3)c2C)C1=O [Compound 29] | 1.7 µM | 0.5 nM | > 125 µM | – | – | EC50 (P. falciparum K1) (Plasmodium falciparum K1): sub-nanomolar
7 | CCOC(=O)C1=C(C)N/C(=C/c2cc(C)n(C3CCN(c4ccc(C(F)(F)F)cc4)CC3)c2C)C1=O [Compound 30] | 10 µM | 24 nM | > 125 µM | 153 to 158 °C | – | –
8 | CCOC(=O)C1=C(C)N/C(=C/c2cc(C)n(C3CCN(CCc4ccc(OC)cc4)CC3)c2C)C1=O [Compound 32] | 72 µM | 83 nM | – | – | – | solubility [1, 4]: 25 to 51 µM (≈ 12.3 to 25.1 µg/mL); solubility [1, 6]: 100 to 200 µM (≈ 49.2 to 98.3 µg/mL)
9 | CCOC(=O)C1=C(C)N/C(=C/c2cc(C)n(C3CCN(CCc4ccc(F)cc4)CC3)c2C)C1=O [Compound 34] | 22 µM | 96 nM | – | – | – | solubility [1, 4]: 13 to 26 µM (≈ 6.23 to 12.5 µg/mL); solubility [1, 6]: 52 to 100 µM (≈ 24.9 to 48 µg/mL)
10 | CCOC(=O)C1=C(C)N/C(=C/c2cc(C)n(C3CCN(C(C)c4ccccc4C(F)(F)F)CC3)c2C)C1=O (stereo not drawn) [Compound 36] | 3 µM | 1 nM | > 125 µM | 138 to 142 °C | – | –
11 | CCOC(=O)C1=C(C)N/C(=C/c2cc(C)n(C3CCN(CC4CCCCC4)CC3)c2C)C1=O [Compound 40] | 13 µM | 16 nM | > 125 µM | 184 to 186 °C | – | –
12 | CCOC(=O)C1=C(C)N/C(=C/c2cc(C)n(C3CCN(Cc4ccc(C(F)(F)F)nc4)CC3)c2C)C1=O [Compound 43] | 49 µM | 4 nM | > 125 µM | – | – | [%] Reduction parasitaemia ([2]; 50 mg kg^−1 day^−1 ip): 10.0%; activity in vivo (in words) ([2]; 50 mg/kg ip and 100 mg/kg po): failed to show significant activity in vivo; [%] Reduction parasitaemia ([2]; 100 mg kg^−1 day^−1 po): 0.0%; Survival ([2]; ip): 4 days; Survival ([2]; po): 4 days
13 | CCOC(=O)C1=C(C)N/C(=C/c2cc(C)n(C3CCN(Cc4ccc(F)cc4C(F)(F)F)CC3)c2C)C1=O [Compound 44] | 1.2 µM | 0.4 nM | > 125 µM | 145 to 148 °C | – | EC50 (P. falciparum K1) (Plasmodium falciparum K1): sub-nanomolar
14 | CCOC(=O)C1=C(C)N/C(=C/c2cc(C)n(C3CCN(Cc4cocn4)CC3)c2C)C1=O [Compound 48] | 0.16 µM | 18 nM | > 125 µM | 180 to 182 °C | – | –
15 | CCOC(=O)C1=C(C)N/C(=C/c2cc(C)n(C3CCN(Cc4ccc(-c5noc(C)n5)cc4)CC3)c2C)C1=O [Compound 51] | 11 µM | 1 nM | > 125 µM | 195 to 200 °C | – | –
16 | CCOC(=O)C1=C(C)N/C(=C/c2cc(C)n(C3CCN(Cc4ccc(N5CCOCC5)cc4)CC3)c2C)C1=O [Compound 54] | 53 µM | 2600 nM | – | > 280 °C | – | –
17 | CCOC(=O)C1=C(/C=C/N(C)C)N/C(=C/c2cc(C)n(-c3ccccc3C(F)(F)F)c2C)C1=O [Compound 55, (E)-Ethyl 5-((2,5-dimethyl-1-(2-(trifluoromethyl)phenyl)-1H-pyrrol-3-yl)methylene)-2-((E)-2-(dimethylamino)vinyl)-4-oxo-4,5-dihydro-1H-pyrrole-3-carboxylate] | – | 61 nM | – | – | 56 µM | solubility [1, 8]: > 125 µM
18 | Cc1cc(/C=C2/Nc3cc[nH]c(=O)c3C2=O)c(C)n1-c1ccccc1C(F)(F)F [Compound 56] | – | 47 nM | – | – | 54 µM | [%] Reduction parasitaemia ([2]; 50 mg kg^−1 day^−1 ip): 21.8%; [%] Reduction parasitaemia ([2]; 100 mg kg^−1 day^−1 po): 13.6%; Survival ([2]; ip): 4 days; Survival ([2]; po): 4 days; solubility [1, 8]: > 125 µM
19 | Cc1cc(/C=C2/Nc3ccn(C)c(=O)c3C2=O)c(C)n1-c1ccccc1C(F)(F)F [Compound 57] | – | 14 nM | – | – | 29 µM | [%] Reduction parasitaemia ([2]; 50 mg kg^−1 day^−1 ip): 99.9%; [%] Reduction parasitaemia ([2]; 100 mg kg^−1 day^−1 po): 50.5%; Survival ([2]; po): 8 days; solubility [1, 8]: > 125 µM
20 | CCn1ccc2c(c1=O)C(=O)/C(=C\c1cc(C)n(-c3ccccc3C(F)(F)F)c1C)N2 [Compound 58] | – | 21 nM | – | 204 to 205 °C | 36 µM | solubility [1, 8]: > 125 µM
21 | CCCn1ccc2c(c1=O)C(=O)/C(=C\c1cc(C)n(-c3ccccc3C(F)(F)F)c1C)N2 [Compound 59] | – | 150 nM | – | 180 to 185 °C | 34 µM | drop / loss in activity (fold) (Plasmodium falciparum K1): tenfold
22 | Cc1cc(/C=C2/Nc3ccn(CCN4CCOCC4)c(=O)c3C2=O)c(C)n1-c1ccccc1C(F)(F)F [Compound 60] | – | 230 nM | – | 180 to 185 °C | 65 µM | decrease in EC50 value relative to the unsubstituted analogue 56 (Plasmodium falciparum K1): fivefold
23 | Cc1cc(/C=C2/Nc3ccn(CCN(C)C)c(=O)c3C2=O)c(C)n1-c1ccccc1C(F)(F)F [Compound 61] | – | 250 nM | – | 125 to 128 °C | 35 µM | decrease in EC50 value relative to the unsubstituted analogue 56 (Plasmodium falciparum K1): fivefold
24 | Cc1cc(/C=C2/Nc3ccn(Cc4ccccc4)c(=O)c3C2=O)c(C)n1-c1ccccc1C(F)(F)F [Compound 62, (E)-5-Benzyl-2-((2,5-dimethyl-1-(2-(trifluoromethyl)phenyl)-1H-pyrrol-3-yl)methylene)-1H-pyrrolo[3,2-c]pyridine-3,4(2H, 5H)dione] | – | 230 nM | – | 195 to 200 °C | 43 µM | drop / loss in activity (fold) (Plasmodium falciparum K1): fivefold
25 | Cc1cc(/C=C2/Nc3ccn(Cc4ccc(C(F)(F)F)cc4)c(=O)c3C2=O)c(C)n1-c1ccccc1C(F)(F)F [Compound 63] | – | 46 nM | – | 235 to 240 °C | 54 µM | solubility [1, 8]: 89 µM (≈ 49.6 µg/mL)
26 | Cc1cc(/C=C2/Nc3ccn(Cc4ccncc4)c(=O)c3C2=O)c(C)n1-c1ccccc1C(F)(F)F [Compound 64] | – | 77 nM | – | 215 to 240 °C | 38 µM | solubility [1, 8]: > 125 µM
